Experimental data as given in patent US20210369677A1, “SMALL MOLECULE ACTIVATORS OF POLYCYSTIN-2 (PKD2) AND USES THEREOF” (Northwestern University, priority 2020, published 2021).

Molecular target: T1, polycystin-2 (Homo sapiens, UniProt Q13563, C331S/C344S)
T1 construct: expressed in transfected cells
T1 sequence (Q13563 1-968 C331S/C344S): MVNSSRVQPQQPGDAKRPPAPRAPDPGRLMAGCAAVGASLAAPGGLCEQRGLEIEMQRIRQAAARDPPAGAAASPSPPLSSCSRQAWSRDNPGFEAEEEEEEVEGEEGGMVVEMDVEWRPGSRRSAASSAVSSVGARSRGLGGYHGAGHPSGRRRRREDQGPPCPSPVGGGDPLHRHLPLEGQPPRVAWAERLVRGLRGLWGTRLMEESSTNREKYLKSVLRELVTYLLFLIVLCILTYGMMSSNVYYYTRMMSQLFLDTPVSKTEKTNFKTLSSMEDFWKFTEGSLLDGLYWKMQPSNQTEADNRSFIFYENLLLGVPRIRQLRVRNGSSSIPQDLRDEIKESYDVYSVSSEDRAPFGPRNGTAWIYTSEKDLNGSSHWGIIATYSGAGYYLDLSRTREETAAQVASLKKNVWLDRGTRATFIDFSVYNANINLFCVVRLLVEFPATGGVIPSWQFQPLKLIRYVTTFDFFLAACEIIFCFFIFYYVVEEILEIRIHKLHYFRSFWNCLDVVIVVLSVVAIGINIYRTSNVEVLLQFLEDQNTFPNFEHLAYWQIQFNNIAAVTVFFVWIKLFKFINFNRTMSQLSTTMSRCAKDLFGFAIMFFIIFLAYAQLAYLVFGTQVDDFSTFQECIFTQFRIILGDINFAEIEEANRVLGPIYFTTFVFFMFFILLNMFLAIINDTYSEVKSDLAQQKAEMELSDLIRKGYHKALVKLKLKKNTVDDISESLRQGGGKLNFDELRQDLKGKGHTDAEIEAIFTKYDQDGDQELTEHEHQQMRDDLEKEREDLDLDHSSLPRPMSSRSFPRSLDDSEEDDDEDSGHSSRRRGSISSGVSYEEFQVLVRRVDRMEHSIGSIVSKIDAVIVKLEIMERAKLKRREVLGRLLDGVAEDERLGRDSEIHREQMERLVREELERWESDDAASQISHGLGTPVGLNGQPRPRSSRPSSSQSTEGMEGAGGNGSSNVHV
Format: cell-based
Details: C331S:C334S double mutant

[Gd] [gadolinium]
Effect on C331S:C334S channel cilia current: retaining its sensitivity to pore block
